Experiment in all cases: growth of human tumour cells (NCI), 48 h
Assay [1] has as its system SK-MEL-28 melanoma.
Assay [2] has as its system MOLT-4 leukemia.
Assay [3] has as its system OVCAR-3 ovarian.
Assay [4] deals with CCRF-CEM leukemia.
The subject of assay [5] is IGROV1 ovarian.
Assay [6] relates to NCI-H226 lung.
Assay [7] relates to EKVX NSCLC.
The subject of assay [8] is HCC-2998 colon.
Assay [9] deals with 786-0 renal.
In assay [10] the test system is HCT-15 colon.

Molecules are shown by their SMILES. Values joined by “and” are separate entries in the source; they are usually repeats but may differ in a detail not shown here. Equal values may be shown once.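 Where inhibition never reached the appropriate level, the endpoint shown equals the highest concentration tested. Otherwise, values were interpolated linearly from a five-concentration, 48-hour dose response in 96-well plates. Here, GI50 denotes the concentration required for 50% inhibition of growth. The concentration for full growth arrest is given as TGI.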

`O=C(c1ccc([N+](=O)[O-])cc1[N+](=O)[O-])N(/N=C/C=C/c1ccccc1)c1nnc(-c2ccccc2)c(-c2ccccc2)n1`: the TGI was 68.6 µM in assay [1]; > 100 µM in [2]; > 100 µM in assay [3]; 84.2 µM in assay [4]; > 100 µM in assay [5]; > 100 µM in assay [6]. For the same molecule, the TGI in assay [7] is > 100 µM; in [8] it was > 100 µM; in assay [9], 56 µM; in assay [10] it was > 100 µM.

As to `CC(C)C1CN(C(=O)OCc2ccccc2)C2N1C(=O)C2(C)OCc1ccccc1` (stereo unspecified), the TGI in assay [1] was > 100 µM; in assay [2], 84 µM; in assay [3] it was > 100 µM; in [4], > 100 µM; in [5] it was > 100 µM; in assay [6] it was 81 µM. Besides, the TGI in assay [7], in assay [8], in [9] and in assay [10] was > 100 µM in each case.

Turning to `CCOC(=O)Cc1csc(Nc2ccccc2[N+](=O)[O-])n1`, the TGI in assay [1], in assay [2], in assay [3], in [4], in [5] and in [6] was > 100 µM each time. Also, the TGI in [7], in assay [8], in assay [9] and in assay [10] was > 100 µM each time.

Regarding `CC[C@]1(O)C[C@H]2CN(CCc3c([nH]c4ccccc34)C(C(=O)OC)(c3cc4c(cc3OC)N(C)[C@H]3[C@@](O)(C(=O)OC)[C@H](OC(C)=O)[C@]5(CC)[C@@H]6C[C@@H]6CN6CC[C@]43[C@@H]65)C2)C1` (stereo partly specified), the GI50 in assay [1] was 0.00305 µM; in assay [2] it was 0.0074 µM; in [3], 0.00184 µM; in [4], 0.00456 µM; in assay [5] it was 0.00812 µM; in [6], 0.0231 µM. Also, the GI50 in assay [7] was 0.00688 µM; in assay [8], 0.0045 µM; in assay [9], 0.0068 µM; in [10], 0.0374 µM. In addition, the TGI in [1] was > 14.3 µM; in assay [2] it was 5.43 µM; in [3], 0.00945 µM; in assay [4], > 12.9 µM; in assay [5], 5.11 µM; in assay [6], > 1.59 µM. The TGI was > 14.3 µM in assay [7], 0.278 µM in assay [8], 5 µM in assay [9] and > 14.3 µM in assay [10].

Turning to `CC12c3ccccc3C(OC=O)(c3ccccc31)C1(C)c3ccccc3C2(OC=O)c2ccccc21`, the TGI was > 100 µM in [1]; 68.5 µM in assay [2]; > 100 µM in assay [3]; 89.1 µM in assay [4]; > 100 µM in assay [5]; > 100 µM in [6]. The TGI in assay [7], in assay [8], in assay [9] and in [10] was > 100 µM each time.

Consider `O=c1[nH]c(=O)n(C2CC(O)C(CO)O2)cc1OS(=O)(=O)C(F)(F)F` (stereo unspecified), for which the TGI in assay [1], in assay [2], in assay [3], in assay [4], in assay [5] and in [6] was > 100 µM in each case. The TGI in assay [7], in assay [8], in [9] and in assay [10] was > 100 µM in each case.

On to `C=C(C)C(C1C=C(CCC(C=O)=C(C)C)C(=O)O1)C1(OC)C=C(C)C(=O)O1` (stereo unspecified), for which the GI50 in assay [1] is > 100 µM; in assay [2] it was 34.8 µM; in assay [3] it was > 100 µM; in assay [4], 25.3 µM; in assay [5], 92.6 µM; in [6], > 100 µM. The GI50 in assay [7], in [8], in assay [9] and in assay [10] was > 100 µM each time. The TGI in assay [1], in assay [2], in assay [3], in assay [4], in assay [5] and in assay [6] was > 100 µM in each case. The TGI in assay [7], in assay [8], in [9] and in assay [10] was > 100 µM in each case.

Take `COc1ccc2c(=O)oc3c(OC)cc(CCN(C)C)c4c(=O)oc1c2c34`: the GI50 was 4.25 µM and 1.01 µM in assay [1]; 15.9 µM and 3.03 µM in assay [5]; 17.8 µM and 7.55 µM in assay [7]; 3.66 µM and 0.762 µM in [9]; 16.6 µM and 5.11 µM in assay [10]. Also, the TGI is 15.6 µM and 2.2 µM in assay [1]; 26.8 µM and 17.1 µM in [2]; 30 µM and 19.8 µM in assay [3]; 3.5 µM and 3.06 µM in [4]; 29.6 µM and 11.5 µM in assay [5]; 33.2 µM and 50 µM in assay [6]. In addition, the TGI is 34.9 µM and 15.9 µM in assay [7]; 25.2 µM in [8]; 14.2 µM and 1.51 µM in assay [9]; 36.1 µM and 12.3 µM in [10].

Consider `COc1c2occc2c(N)c2ccc(=O)oc12`, for which the TGI in assay [1], in [2], in [3], in assay [4], in [5] and in assay [6] was > 100 µM in each case. For the same molecule, the TGI in assay [7], in assay [8], in assay [9] and in [10] was > 100 µM in each case.

In the case of `Nc1nc(Cl)nc2c1ncn2C1CC(O)C(CO)O1` (stereo unspecified), the TGI is > 100 µM in assay [1]; > 79.3 µM in assay [2]; > 100 µM in assay [3]; 11.5 µM in [4]; > 100 µM in assay [5]; 62.5 µM in [6]. The TGI in assay [7] was 34.5 µM; in assay [8], > 100 µM; in [9], > 100 µM; in assay [10], > 100 µM. For the same molecule, the GI50 in assay [9] was 2.45 µM.

For the molecule `COc1cc2c3c(n(C)c(=O)c2cc1OC)-c1cc2c(cc1C3=O)OCO2`, the TGI in [1] is > 100 µM; in assay [2], 54.7 µM; in [3], > 100 µM; in assay [4] it was 22.5 µM; in assay [5], 40.9 µM; in [6], > 100 µM. Further, the TGI in [7] is > 100 µM; in assay [8], > 100 µM; in assay [9], > 77.7 µM; in assay [10] it was > 100 µM.
